The target in one series is T1, Nav1.2 (Mus musculus, UniProt B1AWN6).
T1 construct: endogenous in cells
Kind of series: Whole-cell patch-clamp, sodium channel Nav1.2 (N1E-115). Format: cell-based. As to conditions: ratio Kd Nav1.2/Kd Kv1.3.

A further series in a line: LogP determined by HPLC. Format: physicochemical.
Series [1] concerns the target Kv1.3 (UniProt P16390). As to the kind of experiment: Whole-cell patch-clamp on a cell line stably expressing Kv1.3. Format: cell-based. Also noted: Kd Kv1.3; other: whole-cell patch-clamp, cell line stably expressing Kv1.3; Kd Kv1.3; mean ± S.D; Kd Kv1.3 (cloned); other: whole-cell patch-clamp, three to five concentrations, n = 3. The following applies: whole-cell patch-clamp, cell line stably expressing Kv1.3; mean ± S.D. As to the method: (§1) Electrophysiology. All experiments were conducted in the whole-cell configuration of the patch-clamp technique with a holding potential of −80 mV on a cell line stably expressing Kv1.3. Pipette resistances averaged 2.0 MΩ, and series resistance compensation of 80% was employed when currents exceeded 2 nA. Kv1.3 currents were elicited by repeated 200 ms or 2 sec pulses from −80 mV to 40 mV, applied at intervals of 30 or 60 s.
Background: The patch-clamp technique gives a direct electrical read-out from membranes.

In the next series the target is potassium channels. The following applies: background statement; read-out: Kd, block of potassium channels; cited from earlier work.
In series [2] the target is Kv1.3 (UniProt P16390). Kind of series: Whole-cell patch-clamp on a cell line stably expressing Kv1.3. The following applies: FIG. 1A / 1B. Format: cell-based. How it is done:
as §1

The test system of series [3] is delayed-type hypersensitivity (DTH) response. As to conditions: mini-pigs, cited from earlier work.

As a reminder, the chromatographic logP is a lipophilicity value derived from retention on a column. A low value points to lower lipophilicity. As a reminder, the melting point is the temperature, or range, at which the solid turns liquid. Broadly, the Kd is the equilibrium constant for the complex coming apart.

Where no end group is shown, it is not given here.

T1 sequence (B1AWN6 whole entry): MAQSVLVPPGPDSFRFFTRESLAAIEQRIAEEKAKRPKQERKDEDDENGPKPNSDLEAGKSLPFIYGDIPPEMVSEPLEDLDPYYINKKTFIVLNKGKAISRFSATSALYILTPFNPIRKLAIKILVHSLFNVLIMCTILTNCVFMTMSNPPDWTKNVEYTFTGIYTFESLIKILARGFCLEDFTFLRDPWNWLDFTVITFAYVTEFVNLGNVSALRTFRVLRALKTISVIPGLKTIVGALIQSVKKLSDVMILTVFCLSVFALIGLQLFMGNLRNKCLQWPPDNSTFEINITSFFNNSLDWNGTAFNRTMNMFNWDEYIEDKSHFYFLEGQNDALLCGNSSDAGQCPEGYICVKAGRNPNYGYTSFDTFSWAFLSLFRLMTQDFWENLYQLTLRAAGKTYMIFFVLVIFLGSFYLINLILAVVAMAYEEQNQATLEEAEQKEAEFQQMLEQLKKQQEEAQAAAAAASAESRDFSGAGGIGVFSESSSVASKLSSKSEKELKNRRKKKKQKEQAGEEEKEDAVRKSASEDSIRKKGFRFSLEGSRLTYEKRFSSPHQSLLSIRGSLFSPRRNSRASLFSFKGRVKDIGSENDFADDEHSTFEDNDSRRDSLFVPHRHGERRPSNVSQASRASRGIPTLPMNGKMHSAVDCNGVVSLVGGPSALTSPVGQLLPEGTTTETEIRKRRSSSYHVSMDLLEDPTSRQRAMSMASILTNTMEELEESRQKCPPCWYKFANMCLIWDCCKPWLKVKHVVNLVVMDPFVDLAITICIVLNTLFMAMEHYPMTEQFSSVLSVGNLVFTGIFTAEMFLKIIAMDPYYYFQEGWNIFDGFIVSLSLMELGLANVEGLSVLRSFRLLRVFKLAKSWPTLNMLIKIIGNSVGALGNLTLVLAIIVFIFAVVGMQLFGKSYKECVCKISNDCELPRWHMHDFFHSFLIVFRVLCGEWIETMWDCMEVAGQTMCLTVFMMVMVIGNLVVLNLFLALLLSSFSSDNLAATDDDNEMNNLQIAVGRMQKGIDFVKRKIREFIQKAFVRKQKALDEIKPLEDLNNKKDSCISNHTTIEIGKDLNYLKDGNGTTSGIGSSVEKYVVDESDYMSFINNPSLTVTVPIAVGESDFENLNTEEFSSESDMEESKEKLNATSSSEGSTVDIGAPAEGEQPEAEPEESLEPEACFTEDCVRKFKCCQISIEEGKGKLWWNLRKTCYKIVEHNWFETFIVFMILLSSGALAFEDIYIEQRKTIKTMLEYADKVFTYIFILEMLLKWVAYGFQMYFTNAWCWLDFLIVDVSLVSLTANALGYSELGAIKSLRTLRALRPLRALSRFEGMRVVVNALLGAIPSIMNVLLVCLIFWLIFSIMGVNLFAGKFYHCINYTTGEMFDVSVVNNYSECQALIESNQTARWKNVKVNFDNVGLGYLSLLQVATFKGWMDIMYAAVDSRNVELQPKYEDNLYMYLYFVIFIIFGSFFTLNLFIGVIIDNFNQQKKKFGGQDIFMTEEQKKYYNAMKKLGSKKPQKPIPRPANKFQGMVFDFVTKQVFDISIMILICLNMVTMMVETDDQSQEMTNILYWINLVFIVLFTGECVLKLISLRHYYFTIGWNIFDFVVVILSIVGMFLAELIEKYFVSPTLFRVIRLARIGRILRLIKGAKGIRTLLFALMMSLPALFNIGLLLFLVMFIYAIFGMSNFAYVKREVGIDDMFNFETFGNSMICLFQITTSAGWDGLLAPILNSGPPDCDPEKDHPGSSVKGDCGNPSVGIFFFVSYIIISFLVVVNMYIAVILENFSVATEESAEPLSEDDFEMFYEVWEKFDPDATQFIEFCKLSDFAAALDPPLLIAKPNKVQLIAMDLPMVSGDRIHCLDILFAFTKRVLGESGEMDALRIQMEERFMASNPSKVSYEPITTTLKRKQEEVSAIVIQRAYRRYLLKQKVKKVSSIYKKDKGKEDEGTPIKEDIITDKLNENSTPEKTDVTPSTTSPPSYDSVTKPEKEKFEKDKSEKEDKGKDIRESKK

In turn, `O=c1ccc2c(OCc3ccccc3)c3ccoc3cc2o1` [5-BOP, 4-Benzyloxy-7H-furo[3,2-g][1]benzopyran-7-one] came in with a melting point of 136 °C. Moreover, the “S (selectivity over Nav1.2), S = Kd Nav1.2/Kd Kv1.3” value at Nav1.2 is listed as 43. Besides, the chromatographic logP in the series “LogP determined by HPLC” was determined as 3.25. On Kv1.3 [1], binding was characterised by a dissociation constant (Kd) of 350 ± 72 nM.
For `COc1c2ccoc2cc2oc(=O)ccc12` [5-MOP, 5-Methoxypsoralen], the dissociation constant (Kd) at potassium channels was 100000 nM.
Turning to `O=c1ccc2c(OCCc3ccccc3)c3ccoc3cc2o1` [J 09, 4-(2-Phenylethoxy)-7H-furo[3,2-g][1]benzopyran-7-one], the melting point worked out at 154.5 °C. Besides, the “S (selectivity over Nav1.2), S = Kd Nav1.2/Kd Kv1.3” value on Nav1.2 was 41. Besides, the chromatographic logP in “LogP determined by HPLC” worked out at 3.55. The Kd on Kv1.3 [1] turned out to be 169 ± 16 nM.
Taken in the same sequence, the figures for `CC(COc1c2ccoc2cc2oc(=O)ccc12)c1ccccc1` (stereo not drawn) [J 12, R,S-4-(2-Phenylpropoxy)-7H-furo[3,2-g][1]benzopyran-7-on] were 141.5 °C, 25, 3.87 and 72 ± 12 nM.
Taken in the same sequence, the figures for `O=c1ccc2c(OCC3CCCCC3)c3ccoc3cc2o1` [J 14, 4-Cyclohexylmethoxy-7H-furo[3,2-g][1]benzopyran-7-on] were 153.5 °C, 48, 4.41 and 138 ± 17 nM.
On to `O=c1ccc2c(OCCCc3ccccc3)c3ccoc3cc2o1` [J 15, 4-(3-Phenylpropoxy)-7H-furo[3,2-g][1]benzopyran-7-one], for which the melting point is 109 °C. The “inhibition of Kv1.3 current” value against Kv1.3 [2] is recorded as “dose-dependent inhibition”. Besides, on Nav1.2, the “S (selectivity over Nav1.2), S = Kd Nav1.2/Kd Kv1.3” value was 397. This compound had a chromatographic logP in the series “LogP determined by HPLC” of 3.97. Besides, the Kd on Kv1.3 [1] was 6.3 ± 1 nM.
Compound `O=c1ccc2c(OC/C=C/c3ccccc3)c3ccoc3cc2o1` [J 16, trans-4-(3-Phenyl-2-propenyloxy)-7H-furo[3,2-g][1]benzopyran-7-on] showed a melting point of 140 °C. In addition, at Nav1.2, the “S (selectivity over Nav1.2), S = Kd Nav1.2/Kd Kv1.3” value was 41. The chromatographic logP in “LogP determined by HPLC” came out at 3.79. Moreover, the affinity on Kv1.3 [1], expressed as Kd, was 172 ± 37 nM.
In turn, `O=c1ccc2c(OC(c3ccccc3)c3ccccc3)c3ccoc3cc2o1` [J 17, 4-Diphenylmethoxy-7H-furo[3,2-g][1]benzopyran-7-on] registered a melting point of 173 °C. For the same compound, the “S (selectivity over Nav1.2), S = Kd Nav1.2/Kd Kv1.3” value on Nav1.2 is listed as 38. The compound also had a chromatographic logP in the series “LogP determined by HPLC” of 4.12. The same compound returned a Kd on Kv1.3 [1] of 68 ± 12 nM.
In the case of `O=c1ccc2c(OCCCCc3ccccc3)c3ccoc3cc2o1` [J 19 (Psora 4), 4-(4-Phenylbutoxy)-7H-furo[3,2-g][1]benzopyran-7-one], the chromatographic logP in the series “LogP determined by HPLC” came to 4.33.
In the case of `O=c1ccc2c(OCc3ccc(-c4ccccc4)cc3)c3ccoc3cc2o1` [J 20, 5-Biphenylmethoxypsoralen], the melting point stood at 187 °C. The “S (selectivity over Nav1.2), S = Kd Nav1.2/Kd Kv1.3” value at Nav1.2 turned out to be 286. This compound showed a chromatographic logP in the series “LogP determined by HPLC” of 4.4. This compound showed a Kd at Kv1.3 [1] of 3.5 ± 0.5 nM.
`O=c1ccc2c(OCCCC3CCCCC3)c3ccoc3cc2o1` [J 21, 4-(3-Cyclohexylpropoxy)-7H-furo[3,2-g][1]benzopyran-7-on]: the melting point came out at 115 °C. The “S (selectivity over Nav1.2), S = Kd Nav1.2/Kd Kv1.3” value at Nav1.2 stood at 8. The compound further had a chromatographic logP in the series “LogP determined by HPLC” of 5.34. Further, the Kd on Kv1.3 [1] is 144 ± 43 nM.
Taken in the same sequence, the figures for `O=c1ccc2c(OCCCCCc3ccccc3)c3ccoc3cc2o1` [J 22, 4-(5-Phenylpentoxy)-7H-furo[3,2-g][1]benzopyran-7-one] were 94.5 °C, 262, 4.71 and 6.1 ± 0.7 nM.
The matching figures for `O=c1ccc2c(OCCC3CCCCC3)c3ccoc3cc2o1` [J 23, 4-(2-Cyclohexylethoxy)-7H-furo[3,2-g][1]benzopyran-7-on]: 117 °C, 11, 4.82 and 132 ± 33 nM.
`C=C1C[C@@]2(O)[C@@H]3CC[C@@]4(C)[C@@H]5C=CC(=O)OC[C@]5(C(C)OC(C)=O)[C@@H](OC(C)=O)[C@@H](OC(C)=O)[C@@H]4[C@@]3(C)[C@H](OC(C)=O)[C@H](OC(C)=O)[C@@]2(C)C2(C(=O)OC)O[C@H]12` (stereo partly drawn) [correolide]: in series [3], the “suppression of primary DTH response” value is reported as “effectively suppress” and the “suppression of secondary DTH response” value is reported as “much less effective”.
For the compound “MgTX: Kv1.3 blocker (TIINVKCTSPKQCLPPCKAQFGQSAGAKCMNGKCKCYPH; ends and bridges not checked; cysteine pairing not given here; UniProt P40755 1-39, looked up)”, in series [3], the “suppression of primary DTH response” value is “effectively suppress” and the “suppression of secondary DTH response” value is “much less effective”.

These data come from patent US7772408B1, “Substituted 5-alkoxypsoralens as inhibitors of potassium channel activity in lymphocytes and other cells” (The Regents of the University of California, priority 2002, dated 2010).
